Laboratory results: the supplement of paper PMC11451515

Experiments:
Conditions in all cases: 48 h
P12-Ichikawa [1] = experiment: AUC of viability dose-response curve (% viability x log10 dose units); higher = less sensitive
How it was run: (§1)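 Leukemia cells adapted to each medium were seeded in 1536-well plates (500 or 1000 cells/well) and given library compounds in DMSO for 48 h at 37°C. The 11 threefold doses spanned 47 μM to 0.79 nM, and CellTiter-Glo One luminescence was normalised per plate to DMSO and cell-free wells before four-parameter log-logistic fitting on log10 dose. Area under the curve was integrated with the trapezoidal rule, scaling curves above full viability and removing curves that failed quality control.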

SEM cells [2] = experiment: as above
How it was run: as §1

NOMO1 [3] = experiment: as above
How it was run: as §1

P12-Ichikawa [4] = experiment: cell viability relative to DMSO control; higher = less cytotoxic
How it was run: (§2)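 Viability is expressed as a percentage of DMSO wells within each plate, and cell-free wells serve as background. Seeding densities in the 1536-well plates (5 μl) were 500 cells/well for NOMO1 or SEM leukemia cells and 1000 cells/well for P12-Ichikawa. Each line was adapted for at least four passages in each medium. Library compounds in DMSO were pin-dosed at 47 μM to 0.79 nM (11 points, threefold), and CellTiter-Glo One luminescence was read after 48 h at 37°C.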

SEM cells [5] = experiment: as above
How it was run: as §2

NOMO1 [6] = experiment: as above
How it was run: as §2

FC(F)(F)c1ccc(/C=C/c2nc(COc3ccc(CCCCn4ccnn4)cc3)co2)cc1
AUC of viability dose-response curve
Conditions | NOMO1 [3] | P12-Ichikawa [1] | SEM cells [2]
HPLM + 10% dialyzed FBS | 360 | 338 | 445
RPMI 5 mM glucose + 10% FBS | 359 | 309 | 411
RPMI 5 mM glucose + 10% dialyzed FBS | 381 | 362 | 374

cell viability [%]
Conditions | NOMO1 [6] | P12-Ichikawa [4] | SEM cells [5]
HPLM + 10% dialyzed FBS, 0.000781 µM | 127 | 119 | 116
HPLM + 10% dialyzed FBS, 0.00234 µM | 125 | 124 | 119
HPLM + 10% dialyzed FBS, 0.00702 µM | 122 | 110 | 123
HPLM + 10% dialyzed FBS, 0.0211 µM | 127 | 97.3 | 108
HPLM + 10% dialyzed FBS, 0.0632 µM | 120 | 88 | 103
HPLM + 10% dialyzed FBS, 0.19 µM | 104 | 86.9 | 111
HPLM + 10% dialyzed FBS, 0.569 µM | 107 | 83.4 | 109
HPLM + 10% dialyzed FBS, 1.71 µM | 79.4 | 85.6 | 108
HPLM + 10% dialyzed FBS, 5.12 µM | 27.7 | 40.4 | 103
HPLM + 10% dialyzed FBS, 15.4 µM | 25.2 | 35.6 | 109
HPLM + 10% dialyzed FBS, 46.1 µM | 22.6 | 81.6 | 98.7
RPMI 5 mM glucose + 10% FBS, 0.000781 µM | 125 | – | 117
RPMI 5 mM glucose + 10% FBS, 0.00234 µM | 122 | – | 103
RPMI 5 mM glucose + 10% FBS, 0.00702 µM | 128 | – | 116
RPMI 5 mM glucose + 10% FBS, 0.0211 µM | 137 | – | 95.3
RPMI 5 mM glucose + 10% FBS, 0.0632 µM | 134 | – | 105
RPMI 5 mM glucose + 10% FBS, 0.19 µM | 127 | – | 78.3
RPMI 5 mM glucose + 10% FBS, 0.569 µM | 126 | – | 104
RPMI 5 mM glucose + 10% FBS, 1.71 µM | 92.1 | – | 81
RPMI 5 mM glucose + 10% FBS, 5.12 µM | 20.5 | – | 94.2
RPMI 5 mM glucose + 10% FBS, 15.4 µM | 15.3 | – | 94.4
RPMI 5 mM glucose + 10% FBS, 46.1 µM | 13.1 | – | 85.7
RPMI 5 mM glucose + 10% dialyzed FBS, 0.000781 µM | 122 | – | 110
RPMI 5 mM glucose + 10% dialyzed FBS, 0.00234 µM | 143 | – | 124
RPMI 5 mM glucose + 10% dialyzed FBS, 0.00702 µM | 122 | – | 103
RPMI 5 mM glucose + 10% dialyzed FBS, 0.0211 µM | 124 | – | 91.3
RPMI 5 mM glucose + 10% dialyzed FBS, 0.0632 µM | 124 | – | 95.9
RPMI 5 mM glucose + 10% dialyzed FBS, 0.19 µM | 116 | – | 86
RPMI 5 mM glucose + 10% dialyzed FBS, 0.569 µM | 130 | – | 82.3
RPMI 5 mM glucose + 10% dialyzed FBS, 1.71 µM | 128 | – | 84.9
RPMI 5 mM glucose + 10% dialyzed FBS, 5.12 µM | 27.8 | – | 79.3
RPMI 5 mM glucose + 10% dialyzed FBS, 15.4 µM | 24.1 | – | 70.9
RPMI 5 mM glucose + 10% dialyzed FBS, 46.1 µM | 19.9 | – | 84

O=C(OC)[C@]12CC[C@@]3(C)[C@]4(C)CC[C@H]5[C@@](C)(C)C(=O)C(=C[C@]5(C)C4=CC(=O)[C@@H]3[C@@H]2C[C@](C)(C)CC1)C#N
AUC of viability dose-response curve
Conditions | NOMO1 [3] | P12-Ichikawa [1] | SEM cells [2]
HPLM + 10% dialyzed FBS | 408 | 407 | 393
RPMI 5 mM glucose + 10% FBS | 372 | 404 | 408
RPMI 5 mM glucose + 10% dialyzed FBS | 381 | 396 | 370

cell viability [%]
Conditions | NOMO1 [6] | P12-Ichikawa [4] | SEM cells [5]
HPLM + 10% dialyzed FBS, 0.000781 µM | 95 | 100 | 92.6
HPLM + 10% dialyzed FBS, 0.00234 µM | 100 | 100 | 83.3
HPLM + 10% dialyzed FBS, 0.00702 µM | 90.6 | 96.3 | 100
HPLM + 10% dialyzed FBS, 0.0211 µM | 112 | 102 | 101
HPLM + 10% dialyzed FBS, 0.0632 µM | 110 | 104 | 104
HPLM + 10% dialyzed FBS, 0.19 µM | 94.1 | 105 | 99.7
HPLM + 10% dialyzed FBS, 0.569 µM | 113 | 99.8 | 98.1
HPLM + 10% dialyzed FBS, 1.71 µM | 96.1 | 97.5 | 107
HPLM + 10% dialyzed FBS, 5.12 µM | 110 | 99.2 | 81
HPLM + 10% dialyzed FBS, 15.4 µM | 2.47 | 2.24 | 3.9
HPLM + 10% dialyzed FBS, 46.1 µM | 2.86 | 2.66 | 4.06
RPMI 5 mM glucose + 10% FBS, 0.000781 µM | 93.9 | 92.7 | 101
RPMI 5 mM glucose + 10% FBS, 0.00234 µM | 99.8 | 96.7 | 91.8
RPMI 5 mM glucose + 10% FBS, 0.00702 µM | 89.5 | 97.1 | 112
RPMI 5 mM glucose + 10% FBS, 0.0211 µM | 82.1 | 90.3 | 94.6
RPMI 5 mM glucose + 10% FBS, 0.0632 µM | 99.2 | 109 | 110
RPMI 5 mM glucose + 10% FBS, 0.19 µM | 94.2 | 100 | 97.4
RPMI 5 mM glucose + 10% FBS, 0.569 µM | 88.9 | 107 | 101
RPMI 5 mM glucose + 10% FBS, 1.71 µM | 84.7 | 102 | 99.7
RPMI 5 mM glucose + 10% FBS, 5.12 µM | 88.6 | 97 | 109
RPMI 5 mM glucose + 10% FBS, 15.4 µM | 2.76 | 2.4 | 3.61
RPMI 5 mM glucose + 10% FBS, 46.1 µM | 2.71 | 2.78 | 4.26
RPMI 5 mM glucose + 10% dialyzed FBS, 0.000781 µM | 87.2 | 95.8 | 82
RPMI 5 mM glucose + 10% dialyzed FBS, 0.00234 µM | 92 | 93.3 | 87.2
RPMI 5 mM glucose + 10% dialyzed FBS, 0.00702 µM | 96.5 | 92.3 | 90.8
RPMI 5 mM glucose + 10% dialyzed FBS, 0.0211 µM | 96.6 | 98.3 | 92.6
RPMI 5 mM glucose + 10% dialyzed FBS, 0.0632 µM | 102 | 101 | 109
RPMI 5 mM glucose + 10% dialyzed FBS, 0.19 µM | 112 | 108 | 102
RPMI 5 mM glucose + 10% dialyzed FBS, 0.569 µM | 85 | 105 | 103
RPMI 5 mM glucose + 10% dialyzed FBS, 1.71 µM | 84.6 | 90.3 | 77.4
RPMI 5 mM glucose + 10% dialyzed FBS, 5.12 µM | 85.7 | 90.7 | 73.6
RPMI 5 mM glucose + 10% dialyzed FBS, 15.4 µM | 2.44 | 2.44 | 3.1
RPMI 5 mM glucose + 10% dialyzed FBS, 46.1 µM | 2.7 | 2.54 | 3.38
